Measured values as given in patent US20140051701A1, “METHODS OF TREATING A DISEASE OR CONDITION OF THE CENTRAL NERVOUS SYSTEM” (Bionomics Limited, priority 2011, published 2014).
“Also recorded” adds a separate entry of the source.

Tests used:
[1] = tested on: rat primary cortical neurons; test: Neurite outgrowth assay in cortical neuron culture; format: cell-based; settings: for minimal effective concentration: Rattus norvegicus, Primary cortical neuron, 72 h, 3 days exposure of cortical neurons, read-out: concentration giving significant neurite outgrowth; for effect on neurite outgrowth, substance alone: primary cortical neurons; for block of Compound 1-induced enhancement of neurite outgrowth by PLC inhibitor: inhibitor in combination with Compound 1
Protocol: Female rats of 17 days gestation were killed by cervical dislocation and the foetuses were removed from the uterus. Their brains were placed in ice-cold medium of Leibovitz (L15, Gibco, Fisher bioblock, France). Cortex were dissected and meninges were carefully removed. The cortical neurons were dissociated by trypsinization for 30 min at 37° C. (trypsin-EDTA Gibco) in presence of 0.1 mg/ml DNAse I (Roche, France). The reaction was stopped by addition of in medium of Eagle modified by Dulbecco (DMEM; Gibco) with 10% of fetal bovine serum (FBS; Gibco). The suspension was triturated with a 10-ml pipette and using a needle syringe 21G and centrifuged at 350×g for 10 min at room temperature. The pellet of dissociated cells was resuspended in a medium consisting of Neurobasal (Gibco) supplemented with 2% B27 supplement (Gibco), 0.5 mM L-Glutamine (Gibco), an antibiotic-antimicotic mixture. Viable cells were counted in a Neubauer cytometer using the trypan blue exclusion test (Sigma). Cells were seeded on the basis of 30000 cells per Petri dish (ø35 mm, Nunc) precoated with poly-L-lysine.
Cells were allowed to adhere 2 h and maintained in a humidified incubator at 37° C. in 5% CO2-95% air atmosphere.
After neuronal adhesion (2 h after the plating), cultures were exposed to Compound 1 or BDNF for a period of 3 days.
After the 3 days exposure of the neurons to the test compounds, cultures were washed with phosphate-buffered saline (PBS, Gibco) and fixed using 2.5% glutaraldehyde in PBS. Several pictures (˜80) of neurons with neurites without any branching were taken per condition using a digital camera (Coolpix 995; Nikon) mounted on the microscope (Nikon, objective 40×). Neurites were outlined on computer screen using imaging software (Image-Pro Plus, France), which automatically calculates the length.
A global analysis of the data was performed using a one way analysis of variance (ANOVA), followed by Fisher's Protected Least Significant Difference when applicable. The level of significance was set to p<0.05. All results were expressed as mean±sem. N=˜180 cells
The compound of example 1h was tested at 0.1 nM, 1 nM, 10 nM, 100 nM and 1000 nM on two independent cultures comprising 2 Petri dishes per culture and per condition. In parallel, BDNF was tested at 50 ng/ml.

[2] = Non-precipitated withdrawal (physical dependence) after 14-day dosing; format: in vivo, rat; settings: 14 days at 10, 30 and 100 mg/kg/day; 5 days post-treatment; versus no-drug group; listed as Compound 1
Excerpt: Sudden discontinuation of antidepressant medication may produce withdrawal effects caused by physical dependence on the drug. Compounds can be evaluated for physical dependence in a simple animal model where, following a period of chronic dosing (e.g., for 14-20 days), the study drug is stopped and measurements of food intake, body weight and body temperature are taken over the next 5 days. […] This model is suitable for detecting the effects across a broad range of drug classes including opiates, antidepressants and benzodiazepines. […]
Rats treated chronically (14-20 days) with opioids, benzodiazepines Or SSRIs display adverse physical effects after non-precipitated withdrawal of the drugs. The potential consequences of abrupt cessation of dosing with Compound 1 was assessed following 14 days of treatment at 0, 10, 30 and 100 mg/kg/day.

mouse = test: Mouse light dark box model; format: in vivo
Protocol: U73122 was then examined for an in vivo effect on the activity of Example 1 in the mouse light dark box. U73122 was given IP at 30 mg/kg, 120 minutes prior to testing. Compound 1 was dosed orally at 10 mg/kg, 60 minutes prior to testing. […] This experiment was repeated using the anxiolytic compound diazepam to determine whether the activity of U73122 was specific to Compound 1 (FIG. 5).

With `CCOC(=O)c1cn(CC)c2ncc(N)cc2c1=O` [Example 1f, Ethyl 1-ethyl-1,4-dihydro-6-amino-4-oxo-1,8-naphthyridine-3-carboxylate] the minimal effective concentration [1] was < 0.1 µM.
For `CCOC(=O)c1cn(CC)c2ncc(NC3Cc4ccccc4C3)cc2c1=O` [Example 1g, Ethyl 6-(2,3-dihydro-1H-inden-2-ylamino)-1-ethyl-1,4-dihydro-4-oxo-1,8-naphthyridine-3-carboxylate], the minimal effective concentration [1] was < 0.1 µM.
In the case of `CCn1cc(C(=O)N2CCOCC2)c(=O)c2cc(NC3Cc4ccccc4C3)cnc21` [Example 1h], the “changes in body temperature, weight gain or food consumption after withdrawal” value [2] is reported as “does not produce signs of withdrawal; also recorded: did not produce significant changes”, the minimal effective concentration [1] is reported as < 0.1 µM and the “effect on neurite outgrowth, substance alone” value [1] is reported as “enhancement of neurite outgrowth”. The anxiolytic activity (mouse; 10 mg/kg orally, 60 minutes prior to testing) was “robust anxiolytic activity”.
For `CCn1cc(C(=O)N2CCN(C)CC2)c(=O)c2cc(NC3Cc4ccccc4C3)cnc21` [Example 2, Methylpiperazino 6-(2,3-dihydro-1H-inden-2-ylamino)-1-ethyl-1,4-dihydro-4-oxo-1,8-naphthyridine-3-carboxamide], the minimal effective concentration [1] was < 0.1 µM.
In the case of `CCn1cc(C(=O)NC2CC2)c(=O)c2cc(NC3Cc4ccccc4C3)cnc21` [Example 3, Cyclopropylamino 6-(2,3-dihydro-1H-inden-2-ylamino)-1-ethyl-1,4-dihydro-4-oxo-1,8-naphthyridine-3-carboxamide], the minimal effective concentration [1] is reported as < 0.1 µM.
For `CCn1cc(C(=O)N2CCOCC2)c(=O)c2cc(N)cnc21` [Example 4, Morpholino 6-amino-1-ethyl-1,4-dihydro-4-oxo-1,8-naphthyridine-3-carboxamide], the minimal effective concentration [1] was < 0.1 µM.
With `CCn1cc(C(=O)Nc2ccc(F)cc2)c(=O)c2cc(NC3Cc4ccccc4C3)cnc21` [Example 5, 4-fluorophenylamine 6-(2,3-dihydro-1H-inden-2-ylamino)-1-ethyl-1,4-dihydro-4-oxo-1,8-naphthyridine-3-carboxamide] the minimal effective concentration [1] was < 0.1 µM.
In the case of `CCn1cc(C(=O)Nc2ccc(-c3ccccc3)cc2)c(=O)c2cc(NC3Cc4ccccc4C3)cnc21` [Example 6, 4-biphenylamino-6-(2,3-dihydro-1H-inden-2-ylamino)-1-ethyl-1,4-dihydro-4-oxo-1,8-naphthyridine-3-carboxamide], the minimal effective concentration [1] is reported as < 0.1 µM.
In the case of `CCOC(=O)c1cn(CC)c2ncc(NC(=O)C(C)C)cc2c1=O` [Example 7, Ethyl 6-(isobutyrylamide)-1-ethyl-1,4-dihydro-4-oxo-1,8-naphthyridine-3-carboxylate], the minimal effective concentration [1] is reported as < 0.1 µM.
For `S=C([S-])OC1CC2CC1C1CCCC21.[K+]` (centres unmarked) [Example D609, reference compound], the “block of Compound 1-induced enhancement of neurite outgrowth by PLC inhibitor” value [1] was “blocked; also recorded: significant and dose-dependant reduction” and the “effect on neurite outgrowth, substance alone” value [1] was “enhanced neurite outgrowth”.
For `COc1ccc2c(c1)CC[C@@H]1[C@@H]2CC[C@]2(C)[C@@H](NCCCCCCN3C(=O)C=CC3=O)CC[C@@H]12` [Example U73122, reference compound], the “block of Compound 1 activity on neurite outgrowth” value ([1]; U73122 at 1 μM, Compound 1 10 nM) was “significant block”, the “concentration at which full block of Compound 1 activity occurs” value ([1]; U73122 tested over 30 nM to 1 μM with Compound 1 10 nM) was 100 nM and the “block of Compound 1-induced enhancement of neurite outgrowth by PLC inhibitor” value [1] was “blocked; also recorded: dose-related block”. The “effect on anxiolytic activity of Compound 1” value (mouse; U73122 30 mg/kg IP in combination with 10 mg/kg p.o. Compound 1) was “blocks; also recorded: fully blocked the anxiolytic effect”, the “effect on the Time, Entries or Distance parameters, alone” value (mouse; U73122 30 mg/kg IP, 120 minutes prior to testing) was “did not have any effect” and the “effect on the animals' responses to diazepam” value (mouse; U73122 30 mg/kg i.p. with diazepam 1 mg/kg p.o.) was “did not cause any change”.
